Measured values reported in US8273386B2, “Use of hop acids in fruit juices, fruit juice concentrates and other beverages to inhibit Alicyclobacillus bacteria” (MillerCoors LLC, priority 2004, dated 2012).

What was measured:
Type in all cases: cell-based
[1] = system: Alicyclobacillus acidoterrestris; experiment: Minimal Inhibitory Concentration (MIC) assay, broth dilution in BAM, turbidity scored visually; conditions: for Growth in BAM at pH 4.0 at 45° C.: turbidity after 72 hours
Protocol: The basic assay was performed by serially diluting the inhibitors using a two-fold dilution series in a nutrient broth. The dilutions provided inhibitor concentrations in the range of 0.025 ppm to 100 ppm. The nutrient broth used was the American Type Culture Collection Bacillus Agar Medium (BAM) (at pH 4.0 and at 45° C.) for the Alicyclobacillus acidoterrestris. All dilution series were inoculated with approximately 10,000 bacteria per 5 ml. broth tube of freshly cultured (using the same medium) cells per 5 ml. of test assay broth. In each assay, an inoculated sample of the broth without any inhibitor addition was used as a control. Growth was evaluated by visually assessing and scoring the development of turbidity in the broth after 72 hours. The results of the studies are summarized in Table 1 which gives the data from testing the effectiveness of the tetrahydroisohumulone, hexahydrocolupulone and colupulone in inhibiting Alicyclobacillus acidoterrestris. […] Hexahydrocolupulone inhibited the Alicyclobacillus acidoterrestris test strain at or above 50 ppm. Colupulone inhibited the Alicyclobacillus acidoterrestris test strain at or above 50 ppm.

[2] = system: Alicyclobacillus acidocaldarius; experiment: Minimal Inhibitory Concentration (MIC) assay, broth dilution in TSB, turbidity scored visually; conditions: for Growth in TSB at pH 7.0: turbidity after 48 hours; for Concentration inhibiting the Alicyclobacillus acidocaldarius test strain (MIC): TSB, pH 7.0, 48 hours
Protocol: The basic assay was performed by serially diluting the inhibitors using a two-fold dilution series in a nutrient broth. The dilutions provided inhibitor concentrations in the range of 0.025 ppm to 100 ppm. The nutrient broth used was trypticase soy broth (TSB) (at pH 7.0) for the Alicyclobacillus acidocaldarius. All dilution series were inoculated with approximately 10,000 bacteria per 5 ml. of broth using freshly cultured (using the same medium) cells per 5 ml. of test assay broth. In each assay, an inoculated sample of the broth without any inhibitor addition was used as a control. Growth was evaluated by visually assessing and scoring the development of turbidity in the broth after 48 hours. The results of the studies are summarized in Table 2 which gives the data from testing the effectiveness of the tetrahydroisohumulone and hexahydrocolupulone in inhibiting Alicyclobacillus acidocaldarius. […] Hexahydrocolupulone inhibited the Alicyclobacillus acidocaldarius test strain at or above 0.05 ppm.

Alicyclobacillus = experiment: Inhibition of Alicyclobacillus in a solid or liquid medium (general statement)

| SMILES | Growth in BAM at pH 4.0 at 45° C. ([1]; 0.025 ppm) | Growth in BAM at pH 4.0 at 45° C. ([1]; 0.05 ppm) | Growth in BAM at pH 4.0 at 45° C. ([1]; 0.1 ppm) | Growth in BAM at pH 4.0 at 45° C. ([1]; 0.2 ppm) | Growth in BAM at pH 4.0 at 45° C. ([1]; 0.4 ppm) | Growth in BAM at pH 4.0 at 45° C. ([1]; 0.8 ppm) | Growth in BAM at pH 4.0 at 45° C. ([1]; 1.6 ppm) | Growth in BAM at pH 4.0 at 45° C. ([1]; 3.125 ppm) | Growth in BAM at pH 4.0 at 45° C. ([1]; 6.25 ppm) | Growth in BAM at pH 4.0 at 45° C. ([1]; 12.5 ppm) | Growth in BAM at pH 4.0 at 45° C. ([1]; 25 ppm) | Growth in BAM at pH 4.0 at 45° C. ([1]; 50 pm) | Growth in BAM at pH 4.0 at 45° C. ([1]; 100 ppm) | Growth in TSB at pH 7.0 ([2]; 0.025 ppm) | Growth in TSB at pH 7.0 ([2]; 0.05 ppm) | Growth in TSB at pH 7.0 ([2]; 0.1 ppm) | Growth in TSB at pH 7.0 ([2]; 0.2 ppm) | Growth in TSB at pH 7.0 ([2]; 0.4 ppm) | Growth in TSB at pH 7.0 ([2]; 0.8 ppm) | Growth in TSB at pH 7.0 ([2]; 1.6 ppm) | other results |
| --- | --- | --- | --- | --- | --- | --- | --- | --- | --- | --- | --- | --- | --- | --- | --- | --- | --- | --- | --- | --- | --- |
| CC(C)=CCC1=C(O)C(C(=O)C(C)C)=C(O)C(CC=C(C)C)(CC=C(C)C)C1=O [Colupulone, colupulone] | ++++ growth | ++++ growth | ++++ growth | ++++ growth | ++++ growth | ++++ growth | ++++ growth | ++++ growth | ++++ growth | ++++ growth | ++++ growth | No growth | No growth |  |  |  |  |  |  |  |  |
| CC(C)CCC1=C(O)C(C(=O)C(C)C)=C(O)C(CCC(C)C)(CCC(C)C)C1=O [Hexahydrocolupulone, hexahydrocolupulone] | ++++ growth | ++++ growth | ++++ growth | ++++ growth | ++++ growth | ++++ growth | ++++ growth | ++++ growth | ++++ growth | ++++ growth | ++++ growth | No growth | No growth | ++ growth | No growth | No growth | No growth | No growth | No growth | No growth | Growth in TSB at pH 7.0 ([2]; 3.125 ppm): No growth; Growth in TSB at pH 7.0 ([2]; 6.25 ppm): No growth; Growth in TSB at pH 7.0 ([2]; 12.5 ppm): No growth; Growth in TSB at pH 7.0 ([2]; 25 ppm): No growth; Growth in TSB at pH 7.0 ([2]; 50 ppm): No growth; Growth in TSB at pH 7.0 ([2]; 100 ppm): No growth; Concentration inhibiting the Alicyclobacillus acidocaldarius test strain (MIC) [2]: ≥ 0.05 ppm; Concentration effective in inhibiting Alicyclobacillus (Alicyclobacillus): ≥ 0.05 ppm |
| CC(C)CCC(=O)C1(O)C(O)=C(C(=O)CC(C)C)C(=O)C1CCC(C)C (stereo not shown) [Tetrahydroisohumulone, tetrahydroisohumulone] | ++++ growth | ++++ growth | ++++ growth | ++++ growth | ++++ growth | ++++ growth | ++++ growth | ++++ growth | ++++ growth | ++++ growth | No growth | No growth | No growth | ++++ growth | ++++ growth | ++++ growth | ++++ growth | ++++ growth | ++++ growth | ++++ growth | Growth in TSB at pH 7.0 ([2]; 3.125 ppm): No growth; Growth in TSB at pH 7.0 ([2]; 6.25 ppm): No growth; Growth in TSB at pH 7.0 ([2]; 12.5 ppm): No growth; Growth in TSB at pH 7.0 ([2]; 25 ppm): No growth; Growth in TSB at pH 7.0 ([2]; 50 ppm): No growth; Growth in TSB at pH 7.0 ([2]; 100 ppm): No growth; Concentration inhibiting the Alicyclobacillus acidocaldarius test strain (MIC) [2]: ≥ 3.125 ppm; Concentration inhibiting the Alicyclobacillus acidoterrestris test strain (MIC) ([1]; BAM, pH 4.0, 45° C., 72 hours): ≥ 25 ppm; Concentration effective in inhibiting Alicyclobacillus (Alicyclobacillus): ≥ 3 ppm |
